Read-outs that look alike come from different tables or passages of the source.

The text below walks through data of patent US4976874A, “Control of biofouling in aqueous systems by non-polymeric quaternary ammonium polyhalides” (Great Lakes Chemical Corporation, priority 1989, dated 1990).

One series deals with Pseudomonas aeruginosa. Put plainly: % Kill of Pseudomonas aeruginosa. The format is cell-based. The note with it: read-out: Percent Kill Pseudomonas aeruginosa; for killing at 0.23 µg/mL: 0.23 ppm free bromine; for killing at 0.34 µg/mL: 0.34 ppm free bromine; for killing at 0.2 µg/mL: 0.20 ppm free bromine; for killing at 0.25 µg/mL: 0.25 ppm free bromine. From the text: Quaternary ammonium polyhalides and surfactant mixtures thereof have biocidal properties in aqueous systems where oxidizing biocides are compatible; that is, in aqueous systems having a low halogen demand.
The data in Tables 3-5 indicate that the combination of a water soluble liquid quaternary ammonium polyhalide and a surfactant provides an enhanced efficacy over the liquid quaternary ammonium polyhalide alone. This may be a result of the surface active effect on exopolysaccharides and/or biological membranes.

The conditions of series [1]: Japanese Patent Publication No. 49/14,411; cited from earlier work.
For series [2] the following is noted: Japanese Patent Publication No. 49/14,411; cited from earlier work. The source holds these as a separate data set.

With `CCCCCCCC[N+](C)(C)CCCCCCCC` [Compound 2, N-N-Dimethyl-N,N-dioctylammonium dibromochloride], the killing at 0.23 µg/mL with Pseudomonas aeruginosa (1 min, 1 min) came out at 82%; in the series with Pseudomonas aeruginosa (0.05 h, 3 min), 100%; in the series with Pseudomonas aeruginosa (5 min, 5 min), 100%; in the series with Pseudomonas aeruginosa (10 min, 10 min), 100%.

Turning to `COCCOCC[N+](C)(CCOCCOC)CCOCCOC` [Compound 3, N-Methyl-N,N,N-tris(3,6-dioxaheptyl)ammonium diobromoiodide], the killing at 0.34 µg/mL with Pseudomonas aeruginosa (1 min, 1 min) was found to be 98.6%; in the series on Pseudomonas aeruginosa (0.05 h, 3 min), 100%; in the series with Pseudomonas aeruginosa (5 min, 5 min) it was 100%; in the series on Pseudomonas aeruginosa (10 min, 10 min), 100%.

As for `CCCCCCCCN(C)C` [Compound 4, N,N-Dimethyl-N-octylamine hydrotribromide], the killing at 0.34 µg/mL is 99.9% in the series on Pseudomonas aeruginosa (1 min, 1 min); 100% in the series with Pseudomonas aeruginosa (0.05 h, 3 min); 100% with Pseudomonas aeruginosa (5 min, 5 min); 100% with Pseudomonas aeruginosa (10 min, 10 min).

With `CC[N+](C)(C)C` [Compound 5, N-Ethyl-N,N,N-trimethylammonium tribromide], the killing at 0.34 µg/mL in the series on Pseudomonas aeruginosa (1 min, 1 min) amounted to 99.9%; with Pseudomonas aeruginosa (0.05 h, 3 min), 100%; in the series with Pseudomonas aeruginosa (5 min, 5 min) it was 100%; in the series on Pseudomonas aeruginosa (10 min, 10 min), 100%.

For `CCC[N+](C)(C)CC` [Compound 6, N,N-Dimethyl-N-ethyl-N-propylammonium pentabromide], the killing at 0.34 µg/mL in the series with Pseudomonas aeruginosa (1 min, 1 min) worked out at 99.6%; with Pseudomonas aeruginosa (0.05 h, 3 min), 100%; with Pseudomonas aeruginosa (5 min, 5 min), 100%; in the series with Pseudomonas aeruginosa (10 min, 10 min) it was 100%.

In the case of `C[N+](C)(C)CCO` [Compound 7, N-(2-Hydroxyethyl)-N,N,N-trimethylammonium tribromide], the killing at 0.2 µg/mL amounted to 56.6% in the series with Pseudomonas aeruginosa (1 min, 1 min); 99.6% with Pseudomonas aeruginosa (0.05 h, 3 min); 100% with Pseudomonas aeruginosa (5 min, 5 min); 100% in the series on Pseudomonas aeruginosa (10 min, 10 min).

For `COCCOCCN(CCOCCOC)CCOCCOC` [Compound 8, N,N,.N-tris(3,6-Dioxaheptyl)amine hydrotribromide], the killing at 0.23 µg/mL with Pseudomonas aeruginosa (1 min, 1 min) was 99.9%; with Pseudomonas aeruginosa (0.05 h, 3 min) it was 100%; in the series with Pseudomonas aeruginosa (5 min, 5 min) it was 100%; in the series on Pseudomonas aeruginosa (10 min, 10 min) it was 100%.

For `CCC[N+](CCOCCOC)(CCOCCOC)CCOCCOC` [Compound 9, N-Propyl-N,N,N-tris(3,6-dioxaheptyl)-ammonium tribromide], the killing at 0.23 µg/mL worked out at 21.5% with Pseudomonas aeruginosa (1 min, 1 min); 82% with Pseudomonas aeruginosa (0.05 h, 3 min); 100% with Pseudomonas aeruginosa (5 min, 5 min); 100% in the series with Pseudomonas aeruginosa (10 min, 10 min).

As for `CCCCCCCCCCCCCC[N+](C)(C)Cc1ccccc1` [Compound 11, N-Benzyl-N,N-dimethyl-N-myristyl-ammonium dibromochloride], the killing at 0.34 µg/mL in the series with Pseudomonas aeruginosa (1 min, 1 min) was 100%; in the series with Pseudomonas aeruginosa (0.05 h, 3 min), 100%; in the series on Pseudomonas aeruginosa (5 min, 5 min), 100%; in the series on Pseudomonas aeruginosa (10 min, 10 min), 100%.

As to `CCOCC[N+](C)(C)C` [Compound 12, N-Ethoxyethyl-N,N,N-trimethylammonium tribromide], the killing at 0.34 µg/mL came to 100% in the series on Pseudomonas aeruginosa (1 min, 1 min); 100% in the series on Pseudomonas aeruginosa (0.05 h, 3 min); 99.9% in the series with Pseudomonas aeruginosa (5 min, 5 min); 100% with Pseudomonas aeruginosa (10 min, 10 min).

Consider `CCC[N+](C)(C)CC` [Compound 13, N,N-Dimethyl-N-ethyl-N-propylammonium dichlorobromide], for which the killing at 0.25 µg/mL in the series with Pseudomonas aeruginosa (1 min, 1 min) was 100%; with Pseudomonas aeruginosa (0.05 h, 3 min) it was 100%; in the series on Pseudomonas aeruginosa (5 min, 5 min), 100%; with Pseudomonas aeruginosa (10 min, 10 min) it was 100%.

Take `CC[N+](C)(C)C` [Compound 14, N-Ethyl-N,N,N-tri-methylammonium dichlorobromide]: the killing at 0.2 µg/mL in the series on Pseudomonas aeruginosa (1 min, 1 min) was 100%; with Pseudomonas aeruginosa (0.05 h, 3 min) it was 100%; in the series on Pseudomonas aeruginosa (5 min, 5 min), 100%; with Pseudomonas aeruginosa (10 min, 10 min), 100%.

As to `CCCCCCCCCC[N+](C)(C)CCCCCCCCCC` [Compound 15, N,N-Didecyl-N,N-dimethyl-ammonium dibromochloride], the killing at 0.3 µg/mL in the series with Pseudomonas aeruginosa (1 min), in the series with Pseudomonas aeruginosa (0.05 h), with Pseudomonas aeruginosa (5 min) and with Pseudomonas aeruginosa (10 min) was 100% throughout.

As for `CCCCCCCCCCCCCCCC[n+]1ccccc1` [cetylpyridinium tribromide], the biocidal properties entry in series [1] is “having biocidal properties”. In series [2], the water solubility entry is “water insoluble”.

`CCCCCCCCCCCCCCCC[N+](C)(C)C.[Br-]` [cetyltrimethylammonium bromide]: in series [1], the biocidal properties entry is given as “having biocidal properties”.

As for `CCCCCCCCCCCCCCCC[N+](C)(C)C` [cetyltrimethylammonium tribromide], the biocidal properties result in series [1] is recorded as “having biocidal properties”. The water solubility result in series [2] was “water insoluble”.
